According to US6617337B1, “Use of nitroxides for the treatment of essential hypertension” (Georgetown University, priority 1997, dated 2003):
Values joined by “and” are separate entries in the source; they are usually repeats but may differ in a detail not shown here. Identical values can stand only once.

Assays:
Assay type in all cases: in vivo, rat
SHR and WKY rats [1] = test: Two weeks of oral Tempol in the drinking water: MAP, HR, renal hemodynamics, excretion, 8-ISO; details: Tempol 1 mM in drinking water
Procedure: Thereafter, WKY and SHR were anesthetized with thiobutabarbital (100 mg/kg, i.p., Inactin, Research Biochemicals International) and maintained at 37° C. on a servo-controlled heated rodent operating table. A tracheostomy was performed with polyethylene PE-240 tubing and the left jugular vein and carotid artery were cannulated with PE-50 tubing. A 1% albumin solution in 0.154 M NaCl was infused at 2 ml/h, i.v. to maintain a euvolemic state. A midline incision was made and the left renal artery was isolated. A blood flow probe was placed around the renal artery and connected to a transit-time blood flowmeter (IRB, Transonic Systems, Inc.). We have previously shown that this method of measuring real-time changes in renal blood flow (RBF) is valid in the rat. Mean arterial pressure (MAP) and heart rate (HR) were continuously recorded from the carotid artery using a Statham pressure transducer (model P23, Gould Instruments) and MACLab data acquisition software. Glomerular filtration rate (GFR) was determined from the clearance of [^3H]-inulin. Following surgery and a 60 min equilibration period, MAP, HR, GFR, and RBF were measured over 30 minutes and the data was averaged.

SHR and WKY rats [2] = test: MAP during constant intravenous infusion of Tempol in anesthetized rats (dose-response); details: Tempol 1,800 μmol·kg^−1·h^−1 i.v. infusion, 30 minutes
SHR = test: Role of NO in the MAP response to constant Tempol infusion (L-NAME or norepinephrine pretreatment)
SHR and WKY rats [3] = test: MAP and renal hemodynamics during bolus intravenous injection of Tempol in anesthetized rats; details: for Decrease in MAP: Tempol 72 μmol/kg IV; for RBF during Tempol: dose not specified (24 and 72 μmol/kg studied)
Procedure: In the first group, the short-term actions of Tempol were determined in anesthetized rats. […] The following data was obtained:
Materials and Methods. In Examples 3 to 6, groups of male SHR and WKY rats (200 to 300 g) were maintained on tap water and standard chow (Harlan-Teklad Inc.). […] In order to do this experiment, WKY (n=6) and SHR (n=6) were anesthetized with thiobutabarbital (100 mg/kg i.p., Inactin, Research Biochemicals International) and maintained at 37° C. on a servocontrolled heated rodent operating table. A tracheostomy was performed with polyethylene PE-240 tubing, and the left jugular vein and carotid artery were cannulated with PE-50 tubing. Intravenous infusion of 1% albumin dissolved in 0.154 M NaCl solution was infused at 2 mL/h i.v. to maintain an euvolemic state. A midline incision was made, and the left renal artery was isolated. A blood-flow probe was placed around the renal artery and connected to a transit-time blood flowmeter (1RB, Transonic Systems Inc.). We have previously shown that this method of measuring real-time changes in RBF is valid in the rat (Welch et al., 1995 Am. J. Physiol. 37: F175-F178).
MAP was continuously recorded from the carotid artery using a Statham pressure transducer (model P23, Gould Instruments) and MACLab data acquisition program. After 60 minutes of equilibration, there was a basal period for measurement of MAP and RBF over 30 minutes.

SHR and WKY rats [4] = test: MAP after 7 days of intraperitoneal Tempol; details: Tempol 250 mg/kg/day intraperitoneally for 7 days
[5] = SHR, Tempol 4 mg/kg intravenously
[6] = WKY, Tempol 4 mg/kg intravenously

For `CC1(C)CC(O)CC(C)(C)N1[O]` [Tempol, 4-hydroxy-2,2,6,6-tetramethyl-1-piperidinyloxy], the RBF (SHR and WKY rats [1]; SHR, 2 weeks) was 5.6 ± 0.5 mL/min, the RVR (SHR and WKY rats [1]; SHR, 2 weeks) was 26.4 ± 2.6 mm Hg/ml/min and the UNaV (SHR and WKY rats [1]; SHR, 2 weeks) was 2.1 ± 0.2 mmol/24 hr. For the same compound, the UV (SHR and WKY rats [1]; SHR, 2 weeks) was 15.2 ± 1.7 ml/24 hr, the “Decrease in RVR (tendency, not significant)” value (SHR and WKY rats [1]; SHR, two weeks) was 16% and the GFR (SHR and WKY rats [1]; SHR, two weeks) was 1.9 ± 0.3 mL/min and 2.0 ± 0.2 mL/min. The Heart rate (SHR and WKY rats [1]; SHR, two weeks) was 414±9 bts/min, the “Increase in GFR” value (SHR and WKY rats [1]; SHR, two weeks) was 17% and the MAP (SHR and WKY rats [1]; SHR, two weeks) was 134±6 mm Hg. The “UV8-ISO (8-iso-prostaglandin F2α excretion)” value (SHR and WKY rats [1]; SHR, two weeks) was 6.0±0.7 ng/24 hr, the “Decrease in MAP compared to normal SHR” value (SHR and WKY rats [1]; SHR, two weeks, p<0.05) was 18% and the “Decrease in UV8-ISO (8-iso-prostaglandin F2α excretion)” value (SHR and WKY rats [1]; SHR, two weeks, p<0.05) was 39%. The Body weight gain (SHR and WKY rats [1]; 2 weeks, WKY and SHR pooled) was 66±3 g/14 days, the Food intake (SHR and WKY rats [1]; 2 weeks, WKY and SHR pooled) was 24 ± 1 g/day and the Water intake (SHR and WKY rats [1]; 2 weeks, WKY and SHR pooled, p<0.05 vs control) was 43 ± 3 mL/day. It also gave a GFR (SHR and WKY rats [1]; WKY, 2 weeks) of 2.5 ± 0.4 mL/min, an RBF (SHR and WKY rats [1]; WKY, 2 weeks) of 8.8 ± 0.9 mL/min and an RVR (SHR and WKY rats [1]; WKY, 2 weeks) of 14.2 ± 1.4 mm Hg/ml/min. For the same compound, the UNaV (SHR and WKY rats [1]; WKY, 2 weeks) was 2.4 ± 0.6 mmol/24 hr, the UV (SHR and WKY rats [1]; WKY, 2 weeks) was 16.7 ± 2.3 ml/24 hr and the Heart rate (SHR and WKY rats [1]; WKY, two weeks) was 373±8 bts/min. For the same compound, the MAP (SHR and WKY rats [1]; WKY, two weeks) was 118±7 mm Hg, the MAP (SHR and WKY rats [2]; SHR) was 72±10 mm Hg and the MAP (SHR and WKY rats [2]; WKY) was 71±3 mm Hg. The “Decrease in MAP” value (SHR; SHR infused with norepinephrine, Tempol infusion) was 14%, the “MAP during Tempol infusion” value (SHR; SHR infused with norepinephrine, Tempol infusion, P<0.05) was 161±7 mm Hg and the “MAP during Tempol infusion” value (SHR; SHR pretreated with L-NAME, Tempol infusion 30 minutes, unchanged) was 186±4 mm Hg. For the same compound, the MAP (SHR; SHR, saline vehicle pretreatment, Tempol infusion 180 μmol·kg^−1·min^−1 (so in the source) for 30 minutes) was 121±17 mm Hg, the “Decrease in MAP” value (SHR; SHR, saline vehicle pretreatment, Tempol infusion for 30 minutes, P<0.05) was 32% and the MAP (SHR and WKY rats [3]; SHR, Tempol 24 μmol/kg IV bolus) was 147±4 mm Hg. For the same compound, the RVR (SHR and WKY rats [3]; SHR, Tempol 72 μmol/kg) was 17±2 mm Hg·mL^−1·min^−1, the MAP (SHR and WKY rats [3]; SHR, Tempol 72 μmol/kg IV bolus) was 104±9 mm Hg and the “Decrease in MAP” value (SHR and WKY rats [3]; SHR, P<0.05) was 28%. The “Decrease in RVR” value (SHR and WKY rats [3]; SHR, Tempol 72 μmol/kg, P<0.05) was 29%, the MAP (SHR and WKY rats [3]; [5]) was 108±8 mm Hg and the RVR (SHR and WKY rats [3]; [5]) was 17±2 mm Hg/ml/min. For the same compound, the MAP (SHR and WKY rats [3]; SHR, Tempol 12 mg/kg intravenously) was 80±5 mm Hg, the “RBF during Tempol” value (SHR and WKY rats [3]; SHR) was 6.7 ± 0.8 mL/min and the RVR (SHR and WKY rats [3]; SHR, low-dose Tempol (24 μmol/kg)) was 24±3 mm Hg·mL^−1·min^−1. It also gave an MAP (SHR and WKY rats [3]; WKY, Tempol 24 μmol/kg IV bolus) of 114±5 mm Hg, an RVR (SHR and WKY rats [3]; WKY, Tempol 72 μmol/kg) of 15±1 mm Hg·mL^−1·min^−1 and an MAP (SHR and WKY rats [3]; WKY, Tempol 72 μmol/kg IV bolus) of 96±6 mm Hg. The “Decrease in MAP” value (SHR and WKY rats [3]; WKY, P<0.05) was 11%, the MAP (SHR and WKY rats [3]; [6]) was 98±6 mm Hg and the RVR (SHR and WKY rats [3]; [6]) was 15±1 mm Hg/ml/min. The MAP (SHR and WKY rats [3]; WKY, Tempol 12 mg/kg intravenously) was 99±7 mm Hg, the “RBF during Tempol” value (SHR and WKY rats [3]; WKY) was 6.6 ± 0.7 mL/min and the RVR (SHR and WKY rats [3]; WKY, low-dose Tempol (24 μmol/kg)) was 17±1 mm Hg·mL^−1·min^−1. The MAP after treatment (SHR and WKY rats [4]; SHR, from 133±2, p<0.01) was 120±3 mm Hg and the “Effect on MAP” value (SHR and WKY rats [4]; WKY) was “no effect”.
